In patent US20070213257A1, “COMPOSITIONS AND METHODS FOR COMPLEXES OF NUCLEIC ACIDS AND PEPTIDES” (Nastech Pharmaceutical Company Inc., priority 2005, published 2007):
Where two headings read alike, the source gives them in different places.

Legend:
PN73 = PN73 (Homo sapiens, UniProt P62807); assay: SEC-UV/LS: effect of organic salt on PN73 aggregation; assay type: physicochemical; settings: 100 mM salt, without LC20 siRNA
Procedure: (§1) In this example, size exclusion chromatography (SEC) coupled with an ultraviolet detector (UV 260nm) and static laser light scattering (LS) detector was used to characterize the physical properties of the LC20 siRNA/PN73 peptide complex in the presence or absence of the organic salt. In addition, the phosphate/nitrogen (P/N) charge ratio for LC20 siRNA/PN73 was calculated.
PN73 in monomeric form is 4 kiloDaltons (kDA); however an intrinsic property of this peptide is to aggregate and form large complexes in solution. An initial study was performed to analyze the physical properties of PN73, without LC20 siRNA, in the presence and absence of 100 mM NMDG-glutamate salt or 9% sorbitol (no salt environment). […] In contrast, in the presence of 100 mM NMDG-glutamate salt, two distinct adjacent UV traces were observed indicating two distinct species of PN73 were present. […] Next, the ability of NMDG-glutamate and other organic salts to reduced PN73 aggregation in the presence of LC20 siRNA was characterized by SEC-UV/LS.

LC20 siRNA/PN73 complex = LC20 siRNA/PN73 complex (Homo sapiens, UniProt P62807)
Procedure: as §1
LC20 siRNA/PN73 aggregation was characterized in the presence or absence of NMDG-glutamate by SEC-UV/LS.

Sequence of LC20 siRNA/PN73 complex (P62807 13-48 limits assumed, one chain of several): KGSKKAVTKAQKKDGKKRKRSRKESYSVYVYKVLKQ
Sequence of PN73 (P62807 13-48): as the sequence (P62807 13-48 limits assumed, one chain of several) above

Row | Molecule | effect on PN73 aggregation (PN73) | stabilization of LC20 siRNA/PN73 complex in solution (LC20 siRNA/PN73 complex; 1 mM salt) | stabilization of LC20 siRNA/PN73 complex in solution (LC20 siRNA/PN73 complex; 10 mM salt) | stabilization of LC20 siRNA/PN73 complex in solution (LC20 siRNA/PN73 complex; 100 mM salt) | stabilization of LC20 siRNA/PN73 complex in solution (LC20 siRNA/PN73 complex; 150 mM salt)
1 | CNC[C@H](O)[C@@H](O)[C@H](O)[C@H](O)CO.N[C@@H](CCC(=O)O)C(=O)O [NMDG-glutamate, N-methyl-D-glucamine (NMDG)] | reduces PN73 aggregation significantly | effective stabilizer | effective stabilizer | effective stabilizer | 
2 | NCCCNCCCCNCCCN [spermine acetate, spermine] |  | effective LC20 siRNA/PN73 stabilizer | effective LC20 siRNA/PN73 stabilizer | dissociates the LC20 siRNA/PN73 peptide complex | 
3 | N=C(N)NCCC[C@H](N)C(=O)O [arginine glutamate, arginine] |  | effective stabilizer | effective stabilizer | effective stabilizer | not an effective stabilizer
4 | trimethylethanolamine (Choline) [choline chloride] |  | may not be suitable as a stabilizer | may not be suitable as a stabilizer | may not be suitable as a stabilizer | 
